According to PubChem BioAssay AID1259411 (Chemical Carcinogenesis Research Information System (CCRIS), 2018):
Calls of active or inactive are those of the source. The rule behind the calls is not given here.

Tested on: rodent carcinogenicity bioassays, tumor incidence
Experiment: CCRIS carcinogenicity studies
Conditions: Dose: 0, Dose: 0
Procedure, shortened: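 NCI-built, expert-reviewed records of carcinogenicity and related test outcomes (mutagenicity, tumor promotion/inhibition) compiled from published and report sources, historical span 1985-2011, not updated.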

c1ccc(C2CO2)cc1 (configuration not stated)
carcinogen call (Species: MOUSE, Strain/Sex: B6C3F1/FEMALE, Route: GAVAGE, 375, 750 MG/KG IN CORN OIL 3 D/WK FOR UP TO 104 WK (STUDY DURATION: 24 MO), 375, 750 MG/KG IN CORN OIL 3 D/WK FOR UP TO 104 WK (STUDY DURATION: 24 MO), Tumor Site: Type of Lesion: FORESTOMACH: PAPILLOMA, CARCINOMA): active; positive | carcinogen call (Species: MOUSE, Strain/Sex: B6C3F1/MALE, Route: GAVAGE, 375, 750 MG/KG IN CORN OIL 3 D/WK FOR UP TO 104 WK (STUDY DURATION: 24 MO), 375, 750 MG/KG IN CORN OIL 3 D/WK FOR UP TO 104 WK (STUDY DURATION: 24 MO), Tumor Site: Type of Lesion: LIVER: CARCINOMA OR ADENOMA, FORESTOMACH: PAPILLOMA, CARCINOMA): active; positive | carcinogen call (Species: RAT, Strain/Sex: BDIV/FEMALE, Route: GAVAGE, 100-150 MG/KG IN OLIVE OIL 1/WK FOR 96 WK ADMINISTERED TO OFFSPRING OF FEMALE RATS GIVEN 200 MG/KG ONCE ON DAY 17 OF, Tumor Site: Type of Lesion: FORESTOMACH: CARCINOMA IN SITU, CARCINOMA): active; positive | carcinogen call (Species: RAT, Strain/Sex: BDIV/FEMALE, Route: GAVAGE, 200 MG/KG ONCE IN OLIVE OIL ON DAY 17 OF PREGNANCY (STUDY DURATION: 120 WK)): inactive; negative | carcinogen call (Species: RAT, Strain/Sex: BDIV/MALE, Route: GAVAGE, 100-150 MG/KG IN OLIVE OIL 1/WK FOR 96 WK ADMINISTERED TO OFFSPRING OF FEMALE RATS GIVEN 200 MG/KG ONCE ON DAY 17 OF, Tumor Site: Type of Lesion: FORESTOMACH: PAPILLOMA, CARCINOMA IN SITU, CARCINOMA): active; positive | carcinogen call (Species: RAT, Strain/Sex: F344/FEMALE, Route: GAVAGE, 275, 550 MG/KG IN CORN OIL 3 D/WK FOR 104 WK (STUDY DURATION: 24 MO), 275, 550 MG/KG IN CORN OIL 3 D/WK FOR 104 WK (STUDY DURATION: 24 MO), Tumor Site: Type of Lesion: FORESTOMACH: PAPILLOMA, SQUAMOUS CELL CARCINOMA): active; positive | carcinogen call (Species: RAT, Strain/Sex: F344/MALE, Route: GAVAGE, 275, 550 MG/KG IN CORN OIL 3 D/WK FOR 104 WK (STUDY DURATION: 24 MO), 275, 550 MG/KG IN CORN OIL 3 D/WK FOR 104 WK (STUDY DURATION: 24 MO), Tumor Site: Type of Lesion: FORESTOMACH: PAPILLOMA, SQUAMOUS CELL CARCINOMA): active; positive | carcinogen call (Species: RAT, Strain/Sex: SPRAGUE-DAWLEY/FEMALE, Route: GAVAGE, 50, 250 MG/KG BW IN OLIVE OIL 1/D 4-5 D/WK FOR 52 WK (STUDY DURATION: LIFETIME), 50, 250 MG/KG BW IN OLIVE OIL 1/D 4-5 D/WK FOR 52 WK (STUDY DURATION: LIFETIME), Tumor Site: Type of Lesion: [BRAIN WAS ONLY SITE EVALUATED]): inactive; negative | carcinogen call (Species: RAT, Strain/Sex: SPRAGUE-DAWLEY/FEMALE, Route: INTRAGASTRIC, 50, 250 MG/KG IN OLIVE OIL 1/D, 4-5 D/WK FOR 52 WK (STUDY DURATION: LIFESPAN, 50, 250 MG/KG IN OLIVE OIL 1/D, 4-5 D/WK FOR 52 WK (STUDY DURATION: LIFESPAN, Tumor Site: Type of Lesion: FORESTOMACH: PAPILLOMA OR ACANTHOMA, SQUAMOUS CELL CARCINOMA): active; positive | carcinogen call (Species: RAT, Strain/Sex: SPRAGUE-DAWLEY/MALE, Route: GAVAGE, 50, 250 MG/KG BW IN OLIVE OIL 1/D 4-5 D/WK FOR 52 WK (STUDY DURATION: LIFETIME), 50, 250 MG/KG BW IN OLIVE OIL 1/D 4-5 D/WK FOR 52 WK (STUDY DURATION: LIFETIME), Tumor Site: Type of Lesion: [BRAIN WAS ONLY SITE EVALUATED]): inactive; negative | carcinogen call (Species: RAT, Strain/Sex: SPRAGUE-DAWLEY/MALE, Route: INTRAGASTRIC, 50, 250 MG/KG IN OLIVE OIL 1/D, 4-5 D/WK FOR 52 WK (STUDY DURATION: LIFESPAN, 50, 250 MG/KG IN OLIVE OIL 1/D, 4-5 D/WK FOR 52 WK (STUDY DURATION: LIFESPAN, Tumor Site: Type of Lesion: FORESTOMACH: PAPILLOMA OR ACANTHOMA, SQUAMOUS CELL CARCINOMA): active; positive

CC1(C)C(C=C(Cl)Cl)C1C(=O)OC(C#N)c1ccc(F)c(Oc2ccccc2)c1 (configuration not stated)
carcinogen call (Species: Mouse, Strain/Sex: CD-1/Female (56/dose), Route: Oral, 200, 750, 1,600 ppm (0; 38.4; 140/6; 309.7 mg/kg/day) of 94-95% pure cyfluthrin in feed for 18 mo, 200, 750, 1,600 ppm (0; 38.4; 140/6; 309.7 mg/kg/day) of 94-95% pure cyfluthrin in feed for 18 mo): inactive; negative | carcinogen call (Species: Mouse, Strain/Sex: CD-1/Male (56/dose), Route: Oral, 200, 750, 1,400 ppm (0; 31.9; 114.8; 232.7 mg/kg/day) of 94-95% pure cyfluthrin in feed for 18 mo, 200, 750, 1,400 ppm (0; 31.9; 114.8; 232.7 mg/kg/day) of 94-95% pure cyfluthrin in feed for 18 mo): inactive; negative | carcinogen call (Species: Rat, Strain/Sex: Fisher 344/Female (55/dose), Route: Oral, 50, 225, 450 ppm (3.3; 14.4; 28.3 mg/kg/day) of 93.9-95.1% pure cyfluthrin in feed for 2 yr, 50, 225, 450 ppm (3.3; 14.4; 28.3 mg/kg/day) of 93.9-95.1% pure cyfluthrin in feed for 2 yr): inactive; negative | carcinogen call (Species: Rat, Strain/Sex: Fisher 344/Male (55/dose), Route: Oral, 50, 225, 450 ppm (2.6; 11.6; 22.8 mg/kg/day) of 93.9-95.1% pure cyfluthrin in feed for 2 yr, 50, 225, 450 ppm (2.6; 11.6; 22.8 mg/kg/day) of 93.9-95.1% pure cyfluthrin in feed for 2 yr): inactive; negative

[CH3][Hg][Cl]
carcinogen call (Species: MOUSE, Strain/Sex: B6C3F1/FEMALE, Route: ORAL, 0.4, 2, 10 PPM IN DIET FOR 104 WK (STUDY DURATION: 104 WK), 0.4, 2, 10 PPM IN DIET FOR 104 WK (STUDY DURATION: 104 WK)): inactive; negative | carcinogen call (Species: MOUSE, Strain/Sex: B6C3F1/MALE, Route: ORAL, 0.4, 2, 10 PPM IN DIET FOR 104 WK (STUDY DURATION: 104 WK), 0.4, 2, 10 PPM IN DIET FOR 104 WK (STUDY DURATION: 104 WK), Tumor Site: Type of Lesion: KIDNEY: CARCINOMA, ADENOMA): active; positive | carcinogen call (Species: MOUSE, Strain/Sex: ICR/FEMALE, Route: ORAL, 0.4, 2, 10 PPM IN DIET FOR 104 WK (STUDY DURATION: 104 WK), 0.4, 2, 10 PPM IN DIET FOR 104 WK (STUDY DURATION: 104 WK)): inactive; negative | carcinogen call (Species: MOUSE, Strain/Sex: ICR/FEMALE, Route: ORAL, 10 PPM IN BASAL DIET ADMINISTERED TO SPAYED MICE FOR 80 WK (STUDY DURATION: 80 WK)): inactive; negative | carcinogen call (Species: MOUSE, Strain/Sex: ICR/FEMALE, Route: ORAL, 10 PPM IN BASAL DIET FOR 80 WK (STUDY DURATION: 80 WK)): inactive; negative | carcinogen call (Species: MOUSE, Strain/Sex: ICR/FEMALE, Route: ORAL, 15 PPM IN DIET FOR 78 WK (STUDY DURATION: 78 WK)): inactive; negative | carcinogen call (Species: MOUSE, Strain/Sex: ICR/MALE, Route: ORAL, 0.4, 2, 10 PPM IN DIET FOR 104 WK (STUDY DURATION: 104 WK), 0.4, 2, 10 PPM IN DIET FOR 104 WK (STUDY DURATION: 104 WK), Tumor Site: Type of Lesion: KIDNEY: ADENOCARCINOMA): active; positive | carcinogen call (Species: MOUSE, Strain/Sex: ICR/MALE, Route: ORAL, 10 PPM IN BASAL DIET ADMINISTERED TO CASTRATED MICE FOR 80 WK (STUDY DURATION: 80 WK)): inactive; negative | carcinogen call (Species: MOUSE, Strain/Sex: ICR/MALE, Route: ORAL, 10 PPM IN BASAL DIET FOR 80 WK (STUDY DURATION: 80 WK), Tumor Site: Type of Lesion: KIDNEY: ADENOCARCINOMA): active; positive | carcinogen call (Species: MOUSE, Strain/Sex: ICR/MALE, Route: ORAL, 15 PPM IN DIET FOR 78 WK (STUDY DURATION: 78 WK), Tumor Site: Type of Lesion: KIDNEY: ADENOCARCINOMA, ADENOMA): active; positive | carcinogen call (Species: RAT, Strain/Sex: SPRAGUE-DAWLEY/FEMALE, Route: ORAL, 0.4, 2, 10 PPM IN DIET FOR 130 WK (STUDY DURATION: 130 WK), 0.4, 2, 10 PPM IN DIET FOR 130 WK (STUDY DURATION: 130 WK)): inactive; negative | carcinogen call (Species: RAT, Strain/Sex: SPRAGUE-DAWLEY/MALE, Route: ORAL, 0.4, 2, 10 PPM IN DIET FOR 130 WK (STUDY DURATION: 130 WK), 0.4, 2, 10 PPM IN DIET FOR 130 WK (STUDY DURATION: 130 WK)): inactive; negative
